In US10730870B2, “Compounds and methods for the enhanced degradation of targeted proteins” (Arvinas, Inc., priority 2015, dated 2020):

Biological target: VHL (Homo sapiens (Human), UniProt P40337)
Experiment: VHL fluorescence polarization (FP) competition assay
Type: binding

Structure (SMILES) | IC50 (1% in DMSO) [µM] | IC50 (10% in DMSO) [µM] | VHL FP Assay IC50 (1% in DMSO) | VHL FP Assay IC50 (10% in DMSO)
Cc1ncsc1-c1ccc(CNC(=O)[C@@H]2C[C@@H](O)CN2C(=O)[C@H](CS)N2Cc3ccccc3C2=O)cc1 [Example 48, (2S,4R)-4-hydroxy-1-((R)-3-mercapto-2-(1-oxoisoindolin-2-yl)propanoyl)-N-(4-(4-methylthiazol-5-yl)benzyl)pyrrolidine-2-carboxamide] | 3.77 | 4.7 |  | 
Cc1ncsc1-c1ccc(CNC(=O)[C@@H]2C[C@@H](O)CN2C(=O)C2(N3Cc4ccccc4C3=O)CC2)cc1 [Example 49, (2S,4R)-4-hydroxy-N-(4-(4-methylthiazol-5-yl)benzyl)-1-(1-(1-oxoisoindolin-2-yl)cyclopropanecarbonyl)pyrrolidine-2-carboxamide] |  | 244 |  | 
Cc1ncsc1-c1ccc(CNC(=O)[C@@H]2C[C@@H](O)CN2C(=O)C2(N3Cc4ccccc4C3=O)CCCC2)cc1 [Example 50, (2S,4R)-4-hydroxy-N-(4-(4-methylthiazol-5-yl)benzyl)-1-(1-(1-oxoisoindolin-2-yl)cyclopentanecarbonyl)pyrrolidine-2-carboxamide] |  | 235 |  | 
Cc1ncsc1-c1ccc(CNC(=O)[C@@H]2C[C@@H](O)CN2C(=O)[C@@H](NC(=O)CCC(C)C)[C@H](C)O)cc1 [Example 51, (2S,4R)-4-hydroxy-1-((2S,3S)-3-hydroxy-2-(4-methylpentanamido)butanoyl)-N-(4-(4-methylthiazol-5-yl)benzyl)pyrrolidine-2-carboxamide] | 56.6 | 1520 |  | 
Cc1ncsc1-c1ccc(CNC(=O)[C@@H]2C[C@@H](O)CN2C(=O)[C@@H](NC(=O)CCC(C)C)c2cccs2)cc1 [Example 52, (2S,4R)-4-hydroxy-1-((R)-2-(4-methylpentanamido)-2-(thiophen-2-yl)acetyl)-N-(4-(4-methylthiazol-5-yl)benzyl)pyrrolidine-2-carboxamide] | 2.48 | 3.73 |  | 
COCC#Cc1ccc2c(c1)CN([C@H](C(=O)N1C[C@H](O)C[C@H]1C(=O)NCc1ccc(-c3scnc3C)cc1)C(C)C)C2=O [Example 53, (2S,4R)-4-hydroxy-1-((S)-2-(5-(3-methoxyprop-1-ynyl)-1-oxoisoindolin-2-yl)-3-methylbutanoyl)-N-(4-(4-methylthiazol-5-yl)benzyl)pyrrolidine-2-carboxamide] | 0.474 | 1.03 |  | 
Cc1ncsc1-c1ccc(CNC(=O)[C@@H]2C[C@@H](O)CN2C(=O)C2(N3Cc4ccccc4C3=O)CCCCC2)cc1 [Example 54, (2S,4R)-4-hydroxy-N-(4-(4-methylthiazol-5-yl)benzyl)-1-(1-(1-oxoisoindolin-2-yl)cyclohexanecarbonyl)pyrrolidine-2-carboxamide] | 0.834 | 1.21 |  | 
Cc1ncsc1-c1ccc(CNC(=O)[C@@H]2C[C@@H](O)CN2C(=O)C2(N3Cc4ccccc4C3=O)CCC2)cc1 [Example 55, (2S,4R)-4-hydroxy-N-(4-(4-methylthiazol-5-yl)benzyl)-1-(1-(1-oxoisoindolin-2-yl)cyclobutanecarbonyl)pyrrolidine-2-carboxamide] | 115 | 461 |  | 
Cc1ncsc1-c1ccc(CNC(=O)[C@@H]2C[C@@H](O)CN2C(=O)[C@@H](NC(=O)CCC(C)C)C2CCCCC2)cc1 [Example 56, (2S,4R)-1-((S)-2-cyclohexyl-2-(4-methylpentanamido)acetyl)-4-hydroxy-N-(4-(4-methylthiazol-5-yl)benzyl)pyrrolidine-2-carboxamide] | 0.878 | 1.48 |  | 
COCCCc1ccc2c(c1)CN([C@H](C(=O)N1C[C@H](O)C[C@H]1C(=O)NCc1ccc(-c3scnc3C)cc1)C(C)C)C2=O [Example 57, (2S,4R)-4-hydroxy-1-((S)-2-(5-(3-methoxypropyl)-1-oxoisoindolin-2-yl)-3-methylbutanoyl)-N-(4-(4-methylthiazol-5-yl)benzyl)pyrrolidine-2-carboxamide] | 0.717 | 1.41 |  | 
Cc1ncsc1-c1ccc(CNC(=O)[C@@H]2C[C@@H](O)CN2C(=O)[C@H](c2cccs2)N2Cc3ccccc3C2=O)cc1 [Example 58, (2S,4R)-4-hydroxy-N-(4-(4-methylthiazol-5-yl)benzyl)-1-((R)-2-(1-oxoisoindolin-2-yl)-2-(thiophen-2-yl)acetyl)pyrrolidine-2-carboxamide] | 32.6 | 26.2 |  | 
Cc1ncsc1-c1ccc(CNC(=O)[C@@H]2C[C@@H](O)CN2C(=O)[C@H](CS)NC(=O)CCC(C)C)cc1 [Example 59, (2S,4R)-4-hydroxy-1-((R)-3-mercapto-2-(4-methylpentanamido)propanoyl)-N-(4-(4-methylthiazol-5-yl)benzyl)pyrrolidine-2-carboxamide] | 1.42 | 3.69 |  | 
Cc1ncsc1-c1ccc(CNC(=O)[C@H]2C[C@H](O)CN2C(=O)[C@@H](CSSC[C@H](NC(=O)CCC(C)C)C(=O)N2C[C@H](O)C[C@H]2C(=O)NCc2ccc(-c3scnc3C)cc2)NC(=O)CCC(C)C)cc1 [Example 60, (2S,4R)-4-hydroxy-1-((R)-3-(((S)-3-((2R,4S)-4-hydroxy-2-(4-(4-methylthiazol-5-yl)benzylcarbamoyl)pyrrolidin-1-yl)-2-(4-methylpentanamido)-3-oxopropyl)disulfanyl)-2-(4-methylpentanamido)propanoyl)-N-(4-(4-methylthiazol-5-yl)benzyl)pyrrolidine-2-carboxamide] | 1.45 | 0.293 |  | 
Cc1ncsc1-c1ccc(CNC(=O)[C@@H]2CC(=O)CN2C(=O)[C@H](C(C)C)N2Cc3ccccc3C2=O)cc1 [Example 61, (S)-1-((S)-3-methyl-2-(1-oxoisoindolin-2-yl)butanoyl)-N-(4-(4-methylthiazol-5-yl)benzyl)-4-oxopyrrolidine-2-carboxamide] |  |  | Not Active | Not Active
Cc1ncsc1-c1ccc(CNC(=O)[C@@H]2C[C@](C)(O)CN2C(=O)[C@H](C(C)C)N2Cc3ccccc3C2=O)cc1 [Example 62, (2S,4S)-4-hydroxy-4-methyl-1-((S)-3-methyl-2-(1-oxoisoindolin-2-yl)butanoyl)-N-(4-(4-methylthiazol-5-yl)benzyl)pyrrolidine-2-carboxamide] |  |  | Not Active | Not Active
COc1cccc(C(=O)N2C[C@H](O)C[C@H]2C(=O)NCc2ccc(-c3scnc3C)cc2)c1 [Example 63, (2S,4R)-4-hydroxy-1-(3-methoxybenzoyl)-N-(4-(4-methylthiazol-5-yl)benzyl)pyrrolidine-2-carboxamide] | 58.4 | 53 |  | 
Cc1ncsc1-c1ccc(CNC(=O)[C@@H]2C[C@@H](O)CN2C(=O)c2ccccc2)cc1 [Example 64, (2S,4R)-1-benzoyl-4-hydroxy-N-(4-(4-methylthiazol-5-yl)benzyl)pyrrolidine-2-carboxamide] | 16.8 | 30.5 |  | 
Cc1ncsc1-c1ccc(CNC(=O)[C@@H]2C[C@@H](O)CN2C(=O)[C@@H](N2Cc3ccccc3C2=O)C(C)(C)C)cc1 [Example 65, (2S,4R)-1-((S)-3,3-dimethyl-2-(1-oxoisoindolin-2-yl)butanoyl)-4-hydroxy-N-(4-(4-methylthiazol-5-yl)benzyl)pyrrolidine-2-carboxamide] | 0.631 | 0.578 |  | 
COc1cccc(C(=O)N2C[C@H](O)CC2(C)C(=O)NCc2ccc(-c3scnc3C)cc2)c1 (stereo partly drawn) [Example 66, (4R)-4-hydroxy-1-(3-methoxybenzoyl)-2-methyl-N-(4-(4-methylthiazol-5-yl)benzyl)pyrrolidine-2-carboxamide] |  |  | Not Active | Not Active
CCC1(C(=O)NCc2ccc(-c3scnc3C)cc2)C[C@@H](O)CN1C(=O)c1cccc(OC)c1 (stereo partly drawn) [Example 67, (4R)-2-ethyl-4-hydroxy-1-(3-methoxybenzoyl)-N-(4-(4-methylthiazol-5-yl)benzyl)pyrrolidine-2-carboxamide] |  |  | Not Active | Not Active
Cc1ncsc1-c1ccc(CNC(=O)[C@@H]2C[C@@H](O)CN2C(=O)[C@H](C(C)C)N2Cc3c(Cl)cccc3C2=O)cc1 [Example 68] | 0.972 | 0.668 |  | 
CC(=O)N[C@H](C(=O)N1C[C@H](O)C[C@H]1C(=O)NCc1ccc(-c2scnc2C)cc1)C(C)C [Example 69, (2S,4R)-1-((S)-2-acetamido-3-methylbutanoyl)-4-hydroxy-N-(4-(4-methylthiazol-5-yl)benzyl)pyrrolidine-2-carboxamide] | 1.43 | 4.28 |  | 
Cc1ncsc1-c1ccc(CNC(=O)[C@@H]2C[C@@H](O)CN2C(=O)[C@@H](NC(=O)c2cccc(C#N)c2)C(C)(C)C)cc1 [Example 71, (2S,4R)-1-((S)-2-(3-cyanobenzamido)-3,3-dimethylbutanoyl)-4-hydroxy-N-(4-(4-methylthiazol-5-yl)benzyl)pyrrolidine-2-carboxamide] | 1.62 | 1.38 |  | 
COc1ccc2c(c1)CN([C@H](C(=O)N1C[C@H](O)C[C@H]1C(=O)NCc1ccc(-c3scnc3C)cc1)C(C)C)C2=O [Example 72, (2S,4R)-4-hydroxy-1-((S)-2-(5-methoxy-1-oxoisoindolin-2-yl)-3-methylbutanoyl)-N-(4-(4-methylthiazol-5-yl)benzyl)pyrrolidine-2-carboxamide] | 0.86 | 1.03 |  | 
Cc1ncsc1-c1ccc(CNC(=O)[C@@H]2C[C@@H](O)CN2C(=O)[C@H](C(C)C)N2Cc3cc(Cl)ccc3C2=O)cc1 [Example 73, (2S,4R)-1-((S)-2-(5-chloro-1-oxoisoindolin-2-yl)-3-methylbutanoyl)-4-hydroxy-N-(4-(4-methylthiazol-5-yl)benzyl)pyrrolidine-2-carboxamide] | 1.33 | 1.19 |  | 
Cc1ncsc1-c1ccc(CNC(=O)[C@@H]2C[C@@H](O)CN2C(=O)[C@H](C(C)C)N2Cc3ccc(Cl)cc3C2=O)cc1 [Example 74, (2S,4R)-1-((S)-2-(6-chloro-1-oxoisoindolin-2-yl)-3-methylbutanoyl)-4-hydroxy-N-(4-(4-methylthiazol-5-yl)benzyl)pyrrolidine-2-carboxamide] | 0.45 | 0.264 |  | 
COc1ccc(CCC(=O)N[C@H](C(=O)N2C[C@H](O)C[C@H]2C(=O)NCc2ccc(-c3scnc3C)cc2)C(C)(C)C)cc1 [Example 76, (2S,4R)-4-hydroxy-1-((S)-2-(3-(4-methoxyphenyl)propanamido)-3,3-dimethylbutanoyl)-N-(4-(4-methylthiazol-5-yl)benzyl)pyrrolidine-2-carboxamide] | 0.169 |  |  | 
